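96-well plates; 48 h exposure; 5 concentrations. Endpoints by linear interpolation between flanking doses. Not reached: highest tested concentration assigned. GI50 marks 50% less growth. Definition used: TGI = concentration required for complete inhibition of growth.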
Experiments:
Assay in all cases: growth of human tumour cells (NCI), 48 h
NCI-H460 lung = tested on: NCI-H460 lung
A498 renal = tested on: A498 renal
SK-MEL-28 melanoma = tested on: SK-MEL-28 melanoma
MDA-MB-435 = tested on: MDA-MB-435
MOLT-4 leukemia = tested on: MOLT-4 leukemia
UACC-257 melanoma = tested on: UACC-257 melanoma
MALME-3M melanoma = tested on: MALME-3M melanoma
SF-539 CNS = tested on: SF-539 CNS
CCRF-CEM leukemia = tested on: CCRF-CEM leukemia
RXF 393 renal = tested on: RXF 393 renal
786-0 renal = tested on: 786-0 renal
SR leukemia = tested on: SR leukemia
SK-OV-3 ovarian = tested on: SK-OV-3 ovarian
HT29 colon = tested on: HT29 colon
OVCAR-8 ovarian = tested on: OVCAR-8 ovarian
MDA-MB-468 breast = tested on: MDA-MB-468 breast
CAKI-1 renal = tested on: CAKI-1 renal
MCF7 breast = tested on: MCF7 breast
SK-MEL-2 melanoma = tested on: SK-MEL-2 melanoma
HCT-15 colon = tested on: HCT-15 colon
LOX IMVI melanoma = tested on: LOX IMVI melanoma
M14 melanoma = tested on: M14 melanoma
UACC-62 melanoma = tested on: UACC-62 melanoma
OVCAR-4 ovarian = tested on: OVCAR-4 ovarian
HOP-92 NSCLC = tested on: HOP-92 NSCLC
EKVX NSCLC = tested on: EKVX NSCLC
TK-10 renal = tested on: TK-10 renal
ACHN renal = tested on: ACHN renal
SW-620 colon = tested on: SW-620 colon
NCI-H226 lung = tested on: NCI-H226 lung
HOP-62 NSCLC = tested on: HOP-62 NSCLC
OVCAR-3 ovarian = tested on: OVCAR-3 ovarian
NCI-H23 lung = tested on: NCI-H23 lung
SNB-19 CNS = tested on: SNB-19 CNS
OVCAR-5 ovarian = tested on: OVCAR-5 ovarian
SNB-75 CNS = tested on: SNB-75 CNS
SF-268 CNS = tested on: SF-268 CNS
HCT-116 colon = tested on: HCT-116 colon
SF-295 CNS = tested on: SF-295 CNS
SK-MEL-5 melanoma = tested on: SK-MEL-5 melanoma
K-562 leukemia = tested on: K-562 leukemia
KM12 colon = tested on: KM12 colon
MDA-MB-231 breast = tested on: MDA-MB-231 breast
BT-549 breast = tested on: BT-549 breast
DU-145 prostate = tested on: DU-145 prostate
COLO 205 colon = tested on: COLO 205 colon
RPMI-8226 leukemia = tested on: RPMI-8226 leukemia
UO-31 renal = tested on: UO-31 renal
A549 NSCLC = tested on: A549 NSCLC
IGROV1 ovarian = tested on: IGROV1 ovarian
HCC-2998 colon = tested on: HCC-2998 colon
NCI-H522 lung = tested on: NCI-H522 lung
U251 CNS = tested on: U251 CNS
HL-60(TB) leukemia = tested on: HL-60(TB) leukemia
NCI/ADR-RES ovarian = tested on: NCI/ADR-RES ovarian
SN12C renal = tested on: SN12C renal
HS 578T breast = tested on: HS 578T breast
T-47D breast = tested on: T-47D breast
PC-3 prostate = tested on: PC-3 prostate

CCOC(=O)C(Cc1ccccc1)N1C(=O)/C(=C/N2N=C(c3ccc(OC)cc3)CC2c2ccc3ccccc3c2)SC1=S (stereo not drawn) was tested, and the GI50 (NCI-H460 lung) was 3.19 µM, the TGI (NCI-H460 lung) was 13.8 µM and the GI50 (A498 renal) was 5.08 µM. The TGI (A498 renal) was 19.5 µM, the GI50 (SK-MEL-28 melanoma) was 3.5 µM and the TGI (SK-MEL-28 melanoma) was 13.1 µM. For the same compound, the GI50 (MDA-MB-435) was 3.57 µM, the TGI (MDA-MB-435) was 17.8 µM and the GI50 (MOLT-4 leukemia) was 3.45 µM. It also gave a TGI (MOLT-4 leukemia) of over 100 µM, a GI50 (UACC-257 melanoma) of 5.44 µM and a TGI (UACC-257 melanoma) of 23.1 µM. It also gave a GI50 (MALME-3M melanoma) of 3.24 µM, a TGI (MALME-3M melanoma) of 13.6 µM and a GI50 (SF-539 CNS) of 3.21 µM. It also gave a TGI (SF-539 CNS) of 10.4 µM, a GI50 (CCRF-CEM leukemia) of 3.27 µM and a TGI (CCRF-CEM leukemia) of over 100 µM. For the same compound, the GI50 (RXF 393 renal) was 2.22 µM, the TGI (RXF 393 renal) was 6.36 µM and the GI50 (786-0 renal) was 5.31 µM. For the same compound, the TGI (786-0 renal) was 27.9 µM, the GI50 (SR leukemia) was 7.1 µM and the TGI (SR leukemia) was over 100 µM. It also gave a GI50 (SK-OV-3 ovarian) of 5.28 µM, a TGI (SK-OV-3 ovarian) of 20.6 µM and a GI50 (HT29 colon) of 3.29 µM. The TGI (HT29 colon) was 13.5 µM, the GI50 (OVCAR-8 ovarian) was 3.57 µM and the TGI (OVCAR-8 ovarian) was 15.3 µM. The GI50 (MDA-MB-468 breast) was 2.33 µM, the TGI (MDA-MB-468 breast) was 7.25 µM and the GI50 (CAKI-1 renal) was 3.76 µM. It also gave a TGI (CAKI-1 renal) of 21.7 µM, a GI50 (MCF7 breast) of 2.35 µM and a TGI (MCF7 breast) of 7.63 µM. For the same compound, the GI50 (SK-MEL-2 melanoma) was 2.18 µM, the TGI (SK-MEL-2 melanoma) was 5.03 µM and the GI50 (HCT-15 colon) was 2.6 µM. It also gave a TGI (HCT-15 colon) of 10.4 µM, a GI50 (LOX IMVI melanoma) of 2.8 µM and a TGI (LOX IMVI melanoma) of 10.8 µM. For the same compound, the GI50 (M14 melanoma) was 4.49 µM, the TGI (M14 melanoma) was 41.7 µM and the GI50 (UACC-62 melanoma) was 2.33 µM. The TGI (UACC-62 melanoma) was 6.97 µM, the GI50 (OVCAR-4 ovarian) was 6.63 µM and the TGI (OVCAR-4 ovarian) was 40.1 µM. It also gave a GI50 (HOP-92 NSCLC) of 2.65 µM, a TGI (HOP-92 NSCLC) of 12.1 µM and a GI50 (EKVX NSCLC) of 2.46 µM. For the same compound, the TGI (EKVX NSCLC) was 11.5 µM, the GI50 (TK-10 renal) was 4.97 µM and the TGI (TK-10 renal) was 19 µM. It also gave a GI50 (ACHN renal) of 4.86 µM, a TGI (ACHN renal) of 21.7 µM and a GI50 (SW-620 colon) of 2.57 µM. For the same compound, the TGI (SW-620 colon) was 17 µM, the GI50 (NCI-H226 lung) was 2.56 µM and the TGI (NCI-H226 lung) was 12.8 µM. The GI50 (HOP-62 NSCLC) was 3.82 µM, the TGI (HOP-62 NSCLC) was 19.6 µM and the GI50 (OVCAR-3 ovarian) was 3.21 µM. It also gave a TGI (OVCAR-3 ovarian) of 11.7 µM, a GI50 (NCI-H23 lung) of 3.47 µM and a TGI (NCI-H23 lung) of 14.5 µM. For the same compound, the GI50 (SNB-19 CNS) was 3.35 µM, the TGI (SNB-19 CNS) was 16.4 µM and the GI50 (OVCAR-5 ovarian) was 13.6 µM. It also gave a TGI (OVCAR-5 ovarian) of 27.2 µM, a GI50 (SNB-75 CNS) of 2.15 µM and a TGI (SNB-75 CNS) of 19.3 µM. It also gave a GI50 (SF-268 CNS) of 3.47 µM, a TGI (SF-268 CNS) of 22.9 µM and a GI50 (HCT-116 colon) of 3.3 µM. The TGI (HCT-116 colon) was 17.4 µM, the GI50 (SF-295 CNS) was 2.11 µM and the TGI (SF-295 CNS) was 7.21 µM. For the same compound, the GI50 (SK-MEL-5 melanoma) was 2.24 µM, the TGI (SK-MEL-5 melanoma) was 5.51 µM and the GI50 (K-562 leukemia) was 3.69 µM. It also gave a TGI (K-562 leukemia) of over 100 µM, a GI50 (KM12 colon) of 3.54 µM and a TGI (KM12 colon) of 13.3 µM. It also gave a GI50 (MDA-MB-231 breast) of 4.29 µM, a TGI (MDA-MB-231 breast) of 17.9 µM and a GI50 (BT-549 breast) of 5.79 µM. For the same compound, the TGI (BT-549 breast) was 19.8 µM, the GI50 (DU-145 prostate) was 11.2 µM and the TGI (DU-145 prostate) was 36.5 µM. For the same compound, the GI50 (COLO 205 colon) was 3.09 µM, the TGI (COLO 205 colon) was 14.7 µM and the GI50 (RPMI-8226 leukemia) was 2.79 µM. For the same compound, the TGI (RPMI-8226 leukemia) was over 100 µM, the GI50 (UO-31 renal) was 4.86 µM and the TGI (UO-31 renal) was 18.5 µM. The GI50 (A549 NSCLC) was 7.08 µM, the TGI (A549 NSCLC) was 27.3 µM and the GI50 (IGROV1 ovarian) was 4.09 µM. The TGI (IGROV1 ovarian) was 15.6 µM, the GI50 (HCC-2998 colon) was 3.05 µM and the TGI (HCC-2998 colon) was 10.2 µM. The GI50 (NCI-H522 lung) was 2.49 µM, the TGI (NCI-H522 lung) was 8.88 µM and the GI50 (U251 CNS) was 3.26 µM. The TGI (U251 CNS) was 20.4 µM, the GI50 (HL-60(TB) leukemia) was 3.54 µM and the TGI (HL-60(TB) leukemia) was 16.5 µM. The GI50 (NCI/ADR-RES ovarian) was 14.1 µM, the TGI (NCI/ADR-RES ovarian) was 91.3 µM and the GI50 (SN12C renal) was 3.34 µM. For the same compound, the TGI (SN12C renal) was 13.2 µM, the GI50 (HS 578T breast) was 2.62 µM and the TGI (HS 578T breast) was 16.6 µM. It also gave a GI50 (T-47D breast) of 3.06 µM, a TGI (T-47D breast) of 34.1 µM and a GI50 (PC-3 prostate) of 3.78 µM. It also gave a TGI (PC-3 prostate) of 40.9 µM.

— PubChem BioAssay (NCI)
